Measurements from patent US20200232989A1 (UNIVERSITE D'AIX-MARSEILLE, priority 2017, published 2020).

Experiments:
[1] = PFS of patients in the retrospective validation cohort, split by sCD146 variation; format: in vivo, human; details: retrospective/confirmation cohort
Protocol: 13 patients from the HEPG (France) (50 mg/day, once daily for four weeks) were analyzed retrospectively.
(§1) PFS was defined as the time between blood sample collection and progression, or death from any cause, censoring those alive and progression free at last follow-up. OS was defined as the time from blood sample collection to the date of death from any cause, censoring those alive at last follow-up.
(§2) The % variation of sCD146 between diagnosis and after 1 cycle of suntinib cut-off point was determined at 120%. Kaplan Meier method was used to produce survival curves and analyses of censored data were performed using Cox models.

[2] = Survival (PFS, OS) of metastatic ccRCC patients in the prospective cohort (SUVEGIL and TORAVA trials), split by sCD146 variation; format: in vivo, human
Excerpt: Eligible patients for SUVEGIL and TORAVA trials were at least 18 years of age and had metastatic clear cell renal cell carcinoma (ccRCC) histologically confirmed, with the presence of measurable disease according to Response Evaluation Criteria in Solid Tumors (RECIST) v1.1. […] Patients were ineligible if they had symptomatic or uncontrolled brain metastases, an estimated lifetime less than 3 months, uncontrolled hypertension or clinically significant cardiovascular events (heart failure, prolongation of the QTinterval), history of other primary cancer. All patients gave written informed consent.
The prospective cohort includes patients from the SUVEGIL and TORAVA trials.
The SUVEGIL trial (clinicaltrial.gov, NCT00943839) was a multicenter prospective single-arm study. […] Courses repeat every 6 weeks in the absence of disease progression or unacceptable toxicity.
The TORAVA trial (clinicaltrial.gov, NCT00619268) was a randomized prospective study. Patient characteristics and results have been previously described (Negrier et al, 2011).
The % variation of plasmatic level of sCD146 was correlated with OS and PFS, defined respectively as the time from inclusion in the trial to death from all causes (for OS) and to progression, treatment cessation, or death (for PFS), censored at last follow-up for those still alive or who have not progressed.
as §1, §2

HUVEC = assay: Cell viability/metabolism (XTT) in HUVEC; format: cell-based; details: 48 h
Protocol: FIG. 7. Regulation of expression of CD146 and angiomotin (Amot) is differently regulated in endothelial cells. […] CD146 (A) and angiomotin (B) were analyzed by qPCR. […] The cell metabolism was measured by XTT assay. […] The cell metabolism was measured by XTT assay. Results are represented as the mean of three independent experiments±SEM. * p<0.05, ** p<0.01, *** p<0.001.
(§3) Fifty microliters of sodium 3′-[1-phenylaminocarbonyl)-3,4-tetrazolium]-bis(4-methoxy-6-nitro) benzene sulfonic acid hydrate (XTT) reagent was added to each well. The assay is based on the cleavage of the yellow tetrazolium salt XTT to form an orange formazan dye by metabolically active cells. The absorbance of the formazan product, reflecting cell viability, was measured at 490 nm. Each assay was performed in quadruplicate.

786 cells = assay: Cell viability/metabolism (XTT) in 786 cells; format: cell-based; details: sCD146 50 and 100 ng/ml, 48 h
Protocol: FIG. 4. […] The mRNA levels of CD146 total (A), long (B) and short forms (C) and angiomotin (E) were evaluated by qPCR. D, sCD146 protein in cell supernatants was evaluated by ELISA. […] The cell metabolism was measured by XTT assay. Results are represented as the mean of three independent experiments±SEM.* p<0.05, ** p<0.01, *** p<0.001.
as §3

sCD146 = assay: ELISA of sCD146 protein in 786/786R cell supernatants; format: cell-based; details: 786R cells; 10 μg/ml, 48 hr
Protocol: D, sCD146 protein in cell supernatants was evaluated by ELISA. […] Results are represented as the mean of three independent experiments±SEM.* p<0.05, ** p<0.01, *** p<0.001.
A, 786 and 786R cells were treated with 10 μg/ml BVZ for 48 hr. sCD146 protein in cell supernatants were evaluated by ELISA. […] Results are represented as the mean of three independent experiments±SEM. * p<0.05, ** p<0.01, *** p<0.001.

[3] = patients with sCD146 plasmatic level increase ≥120% between diagnosis and first cycle of treatment
[4] = patients with sCD146 variation <120% between diagnosis and first cycle of treatment

## CCN(CC)CCNC(=O)c1c(C)[nH]c(/C=C2\C(=O)Nc3ccc(F)cc32)c1C [sunitinib]
[1]; patients with modulation of sCD146 <120%
  PFS: 24.8 months
[1]; patients with sCD146 ≥120%
  PFS: 2.3 months
[2]; [3]
  median PFS: 5.7 months
[2]; [4]
  median PFS: 20.5 months
[2]; patients with sCD146 ≥120%
  median OS: 11 months
HUVEC; HUVEC, 1 or 2 μM
  decrease in cell proliferation: about 50%

## sCD146: soluble form of CD146 generated by shedding of the membrane form; used as recombinant protein in cell assays
786 cells; 786 cells treated with 2.5 or 5 μM sunitinib
  effect on sunitinib-dependent decrease of cell metabolism: prevents sunitinib-dependent decreased cell metabolism
786 cells; 786 cells
  cell metabolism: increased cell metabolism at both concentrations
HUVEC; HUVEC treated with sunitinib, recombinant sCD146 50 or 100 ng/ml
  protection from sunitinib: did not protect HUVEC from sunitinib
HUVEC; HUVEC, recombinant sCD146 50 or 100 ng/ml
  proliferation of HUVEC: stimulated the proliferation of HUVEC

## bevacizumab
[2]; patients with sCD146 <120%
  median OS: 24.4 months
[2]; [3]
  median PFS: 10.5 months
[2]; [4]
  median PFS: 10.7 months
[2]; patients with sCD146 ≥120%
  median OS: 24.1 months
sCD146
  sCD146 secretion: no increase in sCD146 secretion
